Data taken from US20060233893A1, “Aqueous solutions for the reduction of fatty tissue” (priority 2004, published 2006).

Test system: fatty tissue
Experiment: administration of solutions to fatty tissue in aesthetic treatment of cellulite by lipotomy
Assay type: in vivo
Settings: added to solution of approximately from 20 to 90 mOsm/l

Compound	efficacy of a highly hypotonic lipotomy solution in the destruction of fatty tissue
O=C(O)Cc1cc(I)c(Oc2ccc(O)c(I)c2)c(I)c1 [tiratricol, triiodothyroacetic acid]	increased the efficacy
phosphatidylcholine	increased the efficacy
